± gives the expanded uncertainty stated by the source.
Test: xn = mol fraction of the nth substance listed
Conditions: 298.15 K, 101 kPa, Liquid; for viscosity: Capillary tube (Ostwald / Ubbelohde) method; for mass density: Vibrating tube method

C1CCCCC1 [cyclohexane] + CCCCCC
Conditions	mass density [kg/m3]	viscosity [mPa·s]
x1 = 0.0397	655.8 ± 0.39	0.2833 ± 0.0033
x1 = 0.2011	674.91 ± 0.37	0.3282 ± 0.0037
x1 = 0.2776	683.97 ± 0.36	0.3485 ± 0.0038
x1 = 0.3617	693.92 ± 0.35	0.3778 ± 0.004
x1 = 0.4409	703.31 ± 0.34	0.4077 ± 0.0042
x1 = 0.5889	720.83 ± 0.32	0.4815 ± 0.0048
x1 = 0.6848	732.18 ± 0.3	0.5355 ± 0.0052
x1 = 0.7608	741.18 ± 0.29	0.5994 ± 0.0057
x1 = 0.8074	746.7 ± 0.28	0.6444 ± 0.006
x1 = 0.9205	760.09 ± 0.27	0.7507 ± 0.0068

CCCCCC [hexane] + Cc1ccccc1
Conditions	mass density [kg/m3]	viscosity [mPa·s]
x2 = 0.0406	657.47 ± 0.4	0.2774 ± 0.0033
x2 = 0.2028	690.93 ± 0.4	0.3073 ± 0.0035
x2 = 0.2804	706.95 ± 0.41	0.3185 ± 0.0036
x2 = 0.3596	723.29 ± 0.42	0.3272 ± 0.0037
x2 = 0.4423	740.35 ± 0.42	0.3421 ± 0.0038
x2 = 0.5997	772.81 ± 0.43	0.3812 ± 0.0042
x2 = 0.6757	788.5 ± 0.43	0.4028 ± 0.0044
x2 = 0.7597	805.83 ± 0.43	0.43 ± 0.0046
x2 = 0.8412	822.63 ± 0.44	0.4644 ± 0.0049
x2 = 0.9199	838.87 ± 0.44	0.499 ± 0.0052

C1CCCCC1 [cyclohexane] + Cc1ccccc1
Conditions	mass density [kg/m3]	viscosity [mPa·s]
x2 = 0.0721	777.43 ± 0.26	0.8574 ± 0.0077
x2 = 0.1813	784.63 ± 0.28	0.7693 ± 0.007
x2 = 0.2798	791.6 ± 0.3	0.7024 ± 0.0065
x2 = 0.3613	799.02 ± 0.31	0.651 ± 0.0062
x2 = 0.4416	806 ± 0.33	0.6116 ± 0.0059
x2 = 0.6003	820.17 ± 0.36	0.5532 ± 0.0055
x2 = 0.6784	827.33 ± 0.38	0.5329 ± 0.0053
x2 = 0.7615	834.61 ± 0.39	0.5181 ± 0.0053
x2 = 0.8396	843.41 ± 0.41	0.5029 ± 0.0052
x2 = 0.9202	853.16 ± 0.43	0.4976 ± 0.0052
